≈ marks a conversion by molar mass, not a printed value. Like-named read-outs stand apart in the source and are kept apart here.
What was measured:
[1] = system: S. aureus clinical isolates; test: microbe, parasite or virus in culture; format: cell-based; conditions: Staphylococcus aureus, read-out: MIC
[2] = system: S. aureus VISA ATCC 700699 GyrB R144I and GyrB I175T; test: Second-step frequency-of-resistance assay in GyrB single mutants; format: cell-based
Procedure: To determine the spontaneous frequency-of-resistance, approximately 10^10 cells from stationary-phase MHBII broth cultures of S. aureus ATCC 700699 and S. aureus ATCC 43300 were plated to antibiotic-containing plates according to a standard protocol to determine frequency-of-resistance. Prior to plating, bacteria were grown overnight in MHBII medium at 37 °C, 250 rpm, collected by centrifugation, and washed once in equal volumes of MHBII broth. From this concentrated cell suspension (250 μL), approximately 10^10 cells were then plated to each MHBII agarose plates. Using agarose instead of agar reduced drug-adsorption and improved the performance of the assay. […] All experiments were performed in at least 3 replicates. Plates were grown at 37 °C for 72 hours. Total CFUs were determined simultaneously in each experiment by plating appropriate dilutions to antibiotic-free MHBII agar plates. Finally, resistance frequencies for each strain were calculated by dividing the number of colonies formed after a 72-hour incubation at 37 °C by the initial viable cell count.

In the case of Cc1[nH]c(C(=O)Nc2nc3c(OCc4ccccc4)cc(C(=O)O)cc3s2)c(Cl)c1Cl [ULD2], the MIC ([1]; MRSA, S. aureus IHMA 1621638, MRSA / VSSA) was 0.5 µg/mL (≈ 1.05 µM), the MIC ([1]; MRSA, S. aureus IHMA 1622252, MRSA / VSSA) was 0.5 µg/mL (≈ 1.05 µM) and the MIC ([1]; MRSA, S. aureus IHMA 1622527, MRSA / VSSA) was 0.25 µg/mL (≈ 0.525 µM). For the same compound, the MIC ([1]; MRSA, S. aureus IHMA 1666371, MRSA / VSSA) was 0.25 µg/mL (≈ 0.525 µM), the MIC ([1]; MRSA, S. aureus IHMA 1695391, MRSA / VSSA) was 0.12 µg/mL (≈ 0.252 µM) and the MIC ([1]; MRSA, S. aureus IHMA 1703428, MRSA / VSSA) was 0.5 µg/mL (≈ 1.05 µM). For the same compound, the MIC ([1]; MRSA, S. aureus IHMA 1720350, MRSA / VSSA) was 0.5 µg/mL (≈ 1.05 µM), the MIC ([1]; MRSA, S. aureus IHMA 1732989, MRSA / VSSA) was 0.5 µg/mL (≈ 1.05 µM) and the MIC ([1]; MRSA, S. aureus IHMA 1742231, MRSA / VSSA) was 0.12 µg/mL (≈ 0.252 µM). For the same compound, the MIC ([1]; MRSA, S. aureus IHMA 1766357, MRSA / VSSA) was 0.12 µg/mL (≈ 0.252 µM), the MIC ([1]; MSSA / NRS 12 / VISA, S. aureus IHMA 1308244, NRS12, MSSA / VISA) was 0.5 µg/mL (≈ 1.05 µM) and the MIC ([1]; MSSA / NRS 13 / VISA, S. aureus IHMA 1308245, NRS13, MSSA / VISA) was 0.5 µg/mL (≈ 1.05 µM). For the same compound, the MIC ([1]; MSSA / NRS 14 / VISA, S. aureus IHMA 1308246, NRS14, MSSA / VISA) was 1 µg/mL (≈ 2.1 µM), the MIC ([1]; MSSA / NRS 17 / VISA, S. aureus IHMA 1308247, NRS17, MSSA / VISA) was 1 µg/mL (≈ 2.1 µM) and the MIC ([1]; MSSA / NRS 28 / VISA, S. aureus IHMA 1308249, NRS28, MSSA / VISA) was 1 µg/mL (≈ 2.1 µM). For the same compound, the MIC ([1]; MSSA / NRS 52, S. aureus IHMA 1308252, NRS52, MSSA / VSSA* (*Expected VAN intermediate, confirmed VAN susceptible twice), test date 2018-11-07) was 0.12 µg/mL (≈ 0.252 µM), the MIC ([1]; MSSA / USA100 / VRSA, S. aureus IHMA 672236, VRS6, MSSA / VRSA, USA100) was 0.12 µg/mL (≈ 0.252 µM) and the MIC ([1]; MSSA, S. aureus IHMA 1563826, MSSA / VSSA) was 0.25 µg/mL (≈ 0.525 µM). For the same compound, the MIC ([1]; MSSA, S. aureus IHMA 1565492, MSSA / VSSA) was 0.12 µg/mL (≈ 0.252 µM), the MIC ([1]; MSSA, S. aureus IHMA 1569499, MSSA / VSSA) was 0.5 µg/mL (≈ 1.05 µM) and the MIC ([1]; MSSA, S. aureus IHMA 1569754, MSSA / VSSA) was 0.12 µg/mL (≈ 0.252 µM). It also gave an MIC ([1]; MSSA, S. aureus IHMA 1574202, MSSA / VSSA) of 0.25 µg/mL (≈ 0.525 µM), an MIC ([1]; MSSA, S. aureus IHMA 1575652, MSSA / VSSA) of 0.25 µg/mL (≈ 0.525 µM) and an MIC ([1]; MSSA, S. aureus IHMA 1575779, MSSA / VSSA) of 0.5 µg/mL (≈ 1.05 µM). The MIC ([1]; MSSA, S. aureus IHMA 1576329, MSSA / VSSA) was 0.5 µg/mL (≈ 1.05 µM), the MIC ([1]; MSSA, S. aureus IHMA 1577800, MSSA / VSSA) was 0.25 µg/mL (≈ 0.525 µM) and the MIC ([1]; MSSA, S. aureus IHMA 1578560, MSSA / VSSA) was 0.5 µg/mL (≈ 1.05 µM). For the same compound, the MIC ([1]; MSSA, S. aureus IHMA 1580233, MSSA / VSSA) was 0.12 µg/mL (≈ 0.252 µM), the MIC ([1]; MSSA, S. aureus IHMA 1580925, MSSA / VSSA) was 0.25 µg/mL (≈ 0.525 µM) and the MIC ([1]; MSSA, S. aureus IHMA 1580955, MSSA / VSSA) was 0.5 µg/mL (≈ 1.05 µM). For the same compound, the MIC ([1]; MSSA, S. aureus IHMA 1582586, MSSA / VSSA) was 0.5 µg/mL (≈ 1.05 µM), the MIC ([1]; MSSA, S. aureus IHMA 1582691, MSSA / VSSA) was 0.25 µg/mL (≈ 0.525 µM) and the MIC ([1]; MSSA, S. aureus IHMA 1584230, MSSA / VSSA) was 0.5 µg/mL (≈ 1.05 µM). For the same compound, the MIC ([1]; MSSA, S. aureus IHMA 1587279, MSSA / VSSA) was 0.5 µg/mL (≈ 1.05 µM), the MIC ([1]; MSSA, S. aureus IHMA 1591459, MSSA / VSSA) was 0.25 µg/mL (≈ 0.525 µM) and the MIC ([1]; MSSA, S. aureus IHMA 1592749, MSSA / VSSA) was 0.5 µg/mL (≈ 1.05 µM). It also gave an MIC ([1]; MSSA, S. aureus IHMA 1592751, MSSA / VSSA) of 0.25 µg/mL (≈ 0.525 µM), an MIC ([1]; MSSA, S. aureus IHMA 1594297, MSSA / VSSA) of 1 µg/mL (≈ 2.1 µM) and an MIC ([1]; MSSA, S. aureus IHMA 1597120, MSSA / VSSA) of 0.5 µg/mL (≈ 1.05 µM). It also gave an MIC ([1]; MSSA, S. aureus IHMA 1597125, MSSA / VSSA) of 0.5 µg/mL (≈ 1.05 µM), an MIC ([1]; MSSA, S. aureus IHMA 1599157, MSSA / VSSA) of 0.5 µg/mL (≈ 1.05 µM) and an MIC ([1]; MSSA, S. aureus IHMA 1599506, MSSA / VSSA) of 0.12 µg/mL (≈ 0.252 µM). For the same compound, the MIC ([1]; MSSA, S. aureus IHMA 1602078, MSSA / VSSA) was 0.5 µg/mL (≈ 1.05 µM), the MIC ([1]; MSSA, S. aureus IHMA 1604586, MSSA / VSSA) was 0.25 µg/mL (≈ 0.525 µM) and the MIC ([1]; MSSA, S. aureus IHMA 1604609, MSSA / VSSA) was 0.5 µg/mL (≈ 1.05 µM). The MIC ([1]; MSSA, S. aureus IHMA 1609919, MSSA / VSSA) was 0.25 µg/mL (≈ 0.525 µM), the MIC ([1]; MSSA, S. aureus IHMA 1622864, MSSA / VSSA) was 0.25 µg/mL (≈ 0.525 µM) and the MIC ([1]; MSSA, S. aureus IHMA 1626392, MSSA / VSSA) was 0.5 µg/mL (≈ 1.05 µM). For the same compound, the MIC ([1]; MSSA, S. aureus IHMA 1713793, MSSA / VSSA) was 0.5 µg/mL (≈ 1.05 µM), the Resistant colony number ([2]; VISA GyrB I175T, 4xMIC) was “lawn” and the Resistant colony number ([2]; VISA GyrB R144I, 4xMIC) was “lawn”. For the same compound, the Resistant colony number ([2]; VISA GyrB R144I, 8xMIC) was “lawn”, the Frequency-of-Resistance ([2]; VISA GyrB R144I, 12xMIC) was 4.65E-08 and the Resistant colony number ([2]; VISA GyrB R144I, 12xMIC) was 1312. It also gave a Frequency-of-Resistance ([2]; VISA GyrB R144I, 16xMIC) of 3.55E-11 and a Resistant colony number ([2]; VISA GyrB R144I, 16xMIC) of 1.
